≈ marks a conversion by molar mass, not a printed value.
Experiments:
Type in all cases: cell-based
[1] = test system: Staphylococcus aureus ATCC 25923; experiment: MIC, microbroth dilution, standard strains; conditions: ATCC25923, ATCC 25923, read-out: Minimum inhibitory concentration
Description: (§1) The minimum inhibitory concentration (MIC) of the pleuromutilin derivative containing thiazole-pyridine benzyl quaternary ammonium salt side chain was tested with moxifloxacin as a positive control (purchased from Shanghai Macklin Biochemical Technology Co., Ltd.) using a microbroth dilution method.
(§2) Standard strains include gram-positive bacteria: Staphylococcus epidermidis ATCC 12228, Staphylococcus aureus ATCC 29213, ATCC 25923 and methicillin-resistant Staphylococcus aureus ATCC 33591; gram-negative bacteria: Salmonella ATCC 14028, Acinetobacter baumannii ATCC 19606, Escherichia coli ATCC 25922 and CMCC 44103, all the strains were purchased from the American Type Culture Collection.

[2] = test system: Escherichia coli ATCC 25922; experiment: MIC, microbroth dilution, standard strains; conditions: ATCC25922, ATCC 25922, read-out: Minimum inhibitory concentration
Description: as §1, §2

[3] = test system: Acinetobacter baumannii ATCC 19606; experiment: MIC, microbroth dilution, standard strains; conditions: ATCC19606, ATCC 19606, read-out: Minimum inhibitory concentration
Description: as §1, §2

Salmonella ATCC 14028 = experiment: MIC, microbroth dilution, standard strains; conditions: ATCC14028, ATCC 14028, read-out: Minimum inhibitory concentration
Description: as §1, §2

[4] = test system: Escherichia coli CMCC 44103; experiment: MIC, microbroth dilution, standard strains; conditions: CMCC44103, CMCC 44103, read-out: Minimum inhibitory concentration
Description: as §1, §2

[5] = test system: methicillin-resistant Staphylococcus aureus ATCC 33591; experiment: MIC, microbroth dilution, standard strains; conditions: ATCC33591, ATCC 33591, read-out: Minimum inhibitory concentration
Description: as §1, §2

[6] = test system: Staphylococcus aureus ATCC 29213; experiment: MIC, microbroth dilution, standard strains; conditions: ATCC29213, ATCC 29213, read-out: Minimum inhibitory concentration
Description: as §1, §2

[7] = test system: Staphylococcus epidermidis ATCC 12228; experiment: MIC, microbroth dilution, standard strains; conditions: ATCC12228, ATCC 12228, read-out: Minimum inhibitory concentration
Description: as §1, §2

[8] = test system: Mycoplasma hyorhini standard strain BTS-7 strain (Mhr-BTS-7; NCTC 10130); experiment: Anti-mycoplasma activity assay, MIC; conditions: NCTC10130
Description: (§3) The minimum inhibitory concentration of the pleuromutilin derivative containing thiazole-pyridine benzyl quaternary ammonium salt side chain against different mycoplasmas was tested with tiamulin as (purchased from Shanghai Yuanye Bio-Technology Co., Ltd) a positive control using a microbroth dilution method, and the antibacterial effect of the compound against different mycoplasmas was evaluated.
(§4) Experimental strains include Mycoplasma hyopneumoniae standard strain J strain (Mhp-J; NCTC 10110), Mycoplasma hyopneumoniae clinical isolate LH strain (Mhp-LH), Mycoplasma hyorhini standard strain BTS-7 strain (Mhr-BTS-7; NCTC 10130), Mycoplasma gallisepticum R strain (MG-R) and Mycoplasma synoviae WVU1853 strain (MS-WVU1853; NCTC 10124) (purchased from National Collection of Type Cultures, United Kingdom).
(§5) The specific operation steps are as follows: • (1) preparation of KM2 medium: 38.9 g of KM2 medium (purchased from Guangdong Huankai Microbial Sci. & Tech. Co., Ltd.) was weighed, added to 800 mL of distilled water, boiled and dissolved, and autoclaved at 115° C. for 20 min for later use. • (2) preparation of bacterial liquid stock: 0.5 mL of each of Mycoplasma hyopneumoniae (Mhp), Mycoplasma hyorhina (Mhr), Mycoplasma gallisepticum (MG) and Mycoplasma synoviae (MS) was taken and transferred to 4.5 mL of KM2 liquid medium, and when the colour of the medium turned yellow, each of the bacteria was sub-packaged at 0.5 mL per tube, and stored as the bacterial liquid at −70° C. • (3) determination of bacterial liquid titre (colour change unit, CCU): 96-well plate method was used to measure the bacterial liquid titre. The preserved bacterial liquid stock was taken from −70° C., melt and equilibrated to room temperature. 0.18 mL of KM2 medium was added to each well of the middle 4 rows of the 96-well plate (that is, 4 parallels), 0.02 mL of the bacterial liquid stock was taken and added to the wells of the first column, respectively, and subjected to 10-fold dilution until 10^−11. A negative control containing only KM2 medium was set (column 12). The plate was sealed and put into an incubator at 37° C., and the results were observed day by day. The highest dilution at which the colour of the medium can change was the CCU/mL of the strain. • (4) determination of MIC: the minimum inhibitory concentration of the compound against mycoplasmas was determined by a microbroth dilution method. Each drug to be tested was prepared as a stock solution with a concentration of 2560 μg/mL, and each drug stock solution was 2-fold diluted with KM2 liquid medium, and the test concentration range was 0.015-128 μg/mL (large concentration gradient) and 0.000004-0.06 μg/mL (small concentration gradient). An appropriate amount of seed bacterial liquid was taken and diluted to 10^4 CCU/mL serially according to its titre. Drugs of various dilutions were added sequentially to the 96-well plate, and then an equal amount of diluted bacterial liquid was added. 200 μL of diluted mycoplasma liquid was set as a positive control, 200 μL of KM2 liquid culture medium was set as a negative control, and a solvent control group (10 μL of drug solvent+190 μL of mycoplasma liquid) was also set. Three parallels were set for each experiment. After all the culture plates were sealed, they were allowed to culture at 37° C. and observed daily, and the final MIC values were recorded. (See FIG. 22 for the MIC determination results of the representative compound 7 against 5 mycoplasma strains)

[9] = test system: Mycoplasma hyopneumoniae standard strain J strain (Mhp-J; NCTC 10110); experiment: Anti-mycoplasma activity assay, MIC; conditions: Mesomycoplasma hyopneumoniae, NCTC10110
Description: as §3, §4, §5

[10] = test system: Mycoplasma hyopneumoniae clinical isolate LH strain (Mhp-LH); experiment: Anti-mycoplasma activity assay, MIC; conditions: Mesomycoplasma hyopneumoniae
Description: as §3, §4, §5

[11] = test system: Mycoplasma synoviae WVU1853 strain (MS-WVU1853; NCTC 10124); experiment: Anti-mycoplasma activity assay, MIC; conditions: Mycoplasmopsis synoviae, NCTC10124
Description: as §3, §4, §5

[12] = test system: Mycoplasma gallisepticum R strain (MG-R); experiment: Anti-mycoplasma activity assay, MIC; conditions: Mycoplasmoides gallisepticum
Description: as §3, §4, §5

SMILES: C=C[C@]1(C)C[C@@H](OC(=O)CSCCN(CC)CC)[C@]2(C)[C@H](C)CC[C@]3(CCC(=O)[C@H]32)[C@@H](C)[C@@H]1O [Tiamulin, tiamulin, reference compound]
- MIC [1]: 64 µg/mL (≈ 130 µM)
- MIC [2]: 128 µg/mL (≈ 259 µM)
- MIC [3]: 64 µg/mL (≈ 130 µM)
- MIC (Salmonella ATCC 14028): 128 µg/mL (≈ 259 µM)
- MIC [4]: 64 µg/mL (≈ 130 µM)
- MIC [5]: 128 µg/mL (≈ 259 µM)
- MIC [6]: > 128 µg/mL
- MIC [7]: 16 µg/mL (≈ 32.4 µM)
- MIC [8]: 0.03 µg/mL (≈ 0.0608 µM)
- MIC [9]: 0.03 µg/mL (≈ 0.0608 µM)
- MIC [10]: 0.015 µg/mL (≈ 0.0304 µM)
- MIC [11]: 2 µg/mL (≈ 4.05 µM)
- MIC [12]: 0.125 µg/mL (≈ 0.253 µM)
